Measured values reported in paper PMC2191316 (The Journal of Experimental Medicine, 1994).
Residues, ends and D or L forms follow the SMILES beside them.

Target: DRB5*0101 molecules (Homo sapiens, UniProt P01903+Q30154)
Test: Inhibition of radiolabeled TT
Type: binding

SMILES | IC50
CC[C@H](C)[C@H](NC(=O)[C@H](CC(N)=O)NC(=O)[C@H](CCCCN)NC(=O)[C@H](Cc1ccccc1)NC(=O)[C@H](C)NC(=O)[C@H](Cc1c[nH]cn1)NC(=O)[C@@H](NC(=O)[C@@H](NC(=O)[C@@H]1CCCN1C(=O)[C@H](CC(N)=O)NC(=O)[C@@H](N)CCC(=O)O)C(C)C)C(C)C)C(=O)N[C@H](C(=O)N[C@H](C(=O)N1CCC[C@H]1C(=O)N[C@@H](CCCNC(=N)N)C(=O)O)[C@@H](C)O)C(C)C [(85-99)91A] (H-ENPVVHAFKNIVTPR-OH) | 1300 nM
CC[C@H](C)[C@H](NC(=O)[C@H](C)NC(=O)[C@H](CCCCN)NC(=O)[C@H](Cc1ccccc1)NC(=O)[C@H](Cc1ccccc1)NC(=O)[C@H](Cc1c[nH]cn1)NC(=O)[C@@H](NC(=O)[C@@H](NC(=O)[C@@H]1CCCN1C(=O)[C@H](CC(N)=O)NC(=O)[C@@H](N)CCC(=O)O)C(C)C)C(C)C)C(=O)N[C@H](C(=O)N[C@H](C(=O)N1CCC[C@H]1C(=O)N[C@@H](CCCNC(=N)N)C(=O)O)[C@@H](C)O)C(C)C [(85-99)94A] (H-ENPVVHFFKAIVTPR-OH) | 140 nM
CC[C@H](C)[C@H](NC(=O)[C@H](CC(N)=O)NC(=O)[C@H](C)NC(=O)[C@H](Cc1ccccc1)NC(=O)[C@H](Cc1ccccc1)NC(=O)[C@H](Cc1c[nH]cn1)NC(=O)[C@@H](NC(=O)[C@@H](NC(=O)[C@@H]1CCCN1C(=O)[C@H](CC(N)=O)NC(=O)[C@@H](N)CCC(=O)O)C(C)C)C(C)C)C(=O)N[C@H](C(=O)N[C@H](C(=O)N1CCC[C@H]1C(=O)N[C@@H](CCCNC(=N)N)C(=O)O)[C@@H](C)O)C(C)C [(85-99)93A] (H-ENPVVHFFANIVTPR-OH) | 2900 nM
CC[C@H](C)[C@H](NC(=O)[C@H](CC(N)=O)NC(=O)[C@H](CCCCN)NC(=O)[C@H](Cc1ccccc1)NC(=O)[C@H](Cc1ccccc1)NC(=O)[C@H](Cc1c[nH]cn1)NC(=O)[C@@H](NC(=O)[C@@H](NC(=O)[C@@H]1CCCN1C(=O)[C@H](CC(N)=O)NC(=O)[C@H](C)N)C(C)C)C(C)C)C(=O)N[C@H](C(=O)N[C@H](C(=O)N1CCC[C@H]1C(=O)N[C@@H](CCCNC(=N)N)C(=O)O)[C@@H](C)O)C(C)C [(85-99)85A] (H-ANPVVHFFKNIVTPR-OH) | 420 nM
CC(C)[C@H](NC(=O)[C@H](C)NC(=O)[C@H](CC(N)=O)NC(=O)[C@H](CCCCN)NC(=O)[C@H](Cc1ccccc1)NC(=O)[C@H](Cc1ccccc1)NC(=O)[C@H](Cc1c[nH]cn1)NC(=O)[C@@H](NC(=O)[C@@H](NC(=O)[C@@H]1CCCN1C(=O)[C@H](CC(N)=O)NC(=O)[C@@H](N)CCC(=O)O)C(C)C)C(C)C)C(=O)N[C@H](C(=O)N1CCC[C@H]1C(=O)N[C@@H](CCCNC(=N)N)C(=O)O)[C@@H](C)O [(85-99)95A] (H-ENPVVHFFKNAVTPR-OH) | 1100 nM
CC[C@H](C)[C@H](NC(=O)[C@H](CC(N)=O)NC(=O)[C@H](CCCCN)NC(=O)[C@H](Cc1ccccc1)NC(=O)[C@H](Cc1ccccc1)NC(=O)[C@H](Cc1c[nH]cn1)NC(=O)[C@@H](NC(=O)[C@@H](NC(=O)[C@@H]1CCCN1C(=O)[C@H](CC(N)=O)NC(=O)[C@H](CCC(=O)O)NC(=O)[C@@H](N)CC(=O)O)C(C)C)C(C)C)C(=O)N[C@H](C(=O)N[C@H](C(=O)N1CCC[C@H]1C(=O)N[C@@H](CCCNC(=N)N)C(=O)N[C@H](C(=O)N1CCC[C@H]1C(=O)N1CCC[C@H]1C(=O)O)[C@@H](C)O)[C@@H](C)O)C(C)C [(84-102)] | 55 nM
CC[C@H](C)[C@H](NC(=O)[C@H](CC(N)=O)NC(=O)[C@H](CCCCN)NC(=O)[C@H](Cc1ccccc1)NC(=O)[C@H](Cc1ccccc1)NC(=O)[C@H](Cc1c[nH]cn1)NC(=O)[C@@H](N)C(C)C)C(=O)N[C@H](C(=O)N[C@H](C(=O)N1CCC[C@H]1C(=O)N[C@@H](CCCNC(=N)N)C(=O)O)[C@@H](C)O)C(C)C [(89-99)] (H-VHFFKNIVTPR-OH) | 1200 nM
CC[C@H](C)[C@H](NC(=O)[C@H](CC(N)=O)NC(=O)[C@H](CCCCN)NC(=O)[C@H](C)NC(=O)[C@H](Cc1ccccc1)NC(=O)[C@H](Cc1c[nH]cn1)NC(=O)[C@@H](NC(=O)[C@@H](NC(=O)[C@@H]1CCCN1C(=O)[C@H](CC(N)=O)NC(=O)[C@@H](N)CCC(=O)O)C(C)C)C(C)C)C(=O)N[C@H](C(=O)N[C@H](C(=O)N1CCC[C@H]1C(=O)N[C@@H](CCCNC(=N)N)C(=O)O)[C@@H](C)O)C(C)C [(85-99)92A] (H-ENPVVHFAKNIVTPR-OH) | 8200 nM
CC[C@H](C)[C@H](NC(=O)[C@H](CC(N)=O)NC(=O)[C@H](CCCCN)NC(=O)[C@H](Cc1ccccc1)NC(=O)[C@H](Cc1ccccc1)NC(=O)[C@H](Cc1c[nH]cn1)NC(=O)[C@@H](NC(=O)[C@@H](NC(=O)[C@H](C)NC(=O)[C@H](CC(N)=O)NC(=O)[C@@H](N)CCC(=O)O)C(C)C)C(C)C)C(=O)N[C@H](C(=O)N[C@H](C(=O)N1CCC[C@H]1C(=O)N[C@@H](CCCNC(=N)N)C(=O)O)[C@@H](C)O)C(C)C [(85-99)87A] (H-ENAVVHFFKNIVTPR-OH) | 610 nM
CC[C@H](C)[C@H](NC(=O)[C@H](CC(N)=O)NC(=O)[C@H](CCCCN)NC(=O)[C@H](Cc1ccccc1)NC(=O)[C@H](Cc1ccccc1)NC(=O)[C@H](Cc1c[nH]cn1)NC(=O)[C@@H](NC(=O)[C@@H](NC(=O)[C@@H]1CCCN1C(=O)[C@H](CC(N)=O)NC(=O)[C@@H](N)CCC(=O)O)C(C)C)C(C)C)C(=O)N[C@H](C(=O)N[C@H](C(=O)N1CCC[C@H]1C(=O)N[C@@H](C)C(=O)O)[C@@H](C)O)C(C)C [(85-99)99A] (H-ENPVVHFFKNIVTPA-OH) | 2300 nM
CC[C@H](C)[C@H](NC(=O)[C@H](CC(N)=O)NC(=O)[C@H](CCCCN)NC(=O)[C@H](Cc1ccccc1)NC(=O)[C@H](Cc1ccccc1)NC(=O)[C@H](Cc1c[nH]cn1)NC(=O)[C@@H](NC(=O)[C@H](C)NC(=O)[C@@H]1CCCN1C(=O)[C@H](CC(N)=O)NC(=O)[C@@H](N)CCC(=O)O)C(C)C)C(=O)N[C@H](C(=O)N[C@H](C(=O)N1CCC[C@H]1C(=O)N[C@@H](CCCNC(=N)N)C(=O)O)[C@@H](C)O)C(C)C [(85-99)88A] (H-ENPAVHFFKNIVTPR-OH) | 945 nM
CC[C@H](C)[C@H](NC(=O)[C@H](CC(N)=O)NC(=O)[C@H](CCCCN)NC(=O)[C@H](Cc1ccccc1)NC(=O)[C@H](Cc1ccccc1)NC(=O)[C@H](Cc1c[nH]cn1)NC(=O)[C@@H](NC(=O)[C@@H](NC(=O)[C@@H]1CCCN1C(=O)[C@H](CC(N)=O)NC(=O)[C@@H](N)CCC(=O)O)C(C)C)C(C)C)C(=O)N[C@H](C(=O)N[C@H](C(=O)N[C@@H](C)C(=O)N[C@@H](CCCNC(=N)N)C(=O)O)[C@@H](C)O)C(C)C [(85-99)98A] (H-ENPVVHFFKNIVTAR-OH) | 350 nM
CC[C@H](C)[C@H](NC(=O)[C@H](CC(N)=O)NC(=O)[C@H](CCCCN)NC(=O)[C@H](Cc1ccccc1)NC(=O)[C@H](Cc1ccccc1)NC(=O)[C@H](Cc1c[nH]cn1)NC(=O)[C@@H](NC(=O)[C@@H](NC(=O)[C@@H]1CCCN1C(=O)[C@H](CC(N)=O)NC(=O)[C@@H](N)CCC(=O)O)C(C)C)C(C)C)C(=O)N[C@@H](C)C(=O)N[C@H](C(=O)N1CCC[C@H]1C(=O)N[C@@H](CCCNC(=N)N)C(=O)O)[C@@H](C)O [(85-99)96A] (H-ENPVVHFFKNIATPR-OH) | 730 nM
CC[C@H](C)[C@H](NC(=O)[C@H](CC(N)=O)NC(=O)[C@H](CCCCN)NC(=O)[C@H](Cc1ccccc1)NC(=O)[C@H](Cc1ccccc1)NC(=O)[C@H](Cc1c[nH]cn1)NC(=O)[C@@H](NC(=O)[C@@H](NC(=O)[C@@H]1CCCN1C(=O)[C@H](C)NC(=O)[C@@H](N)CCC(=O)O)C(C)C)C(C)C)C(=O)N[C@H](C(=O)N[C@H](C(=O)N1CCC[C@H]1C(=O)N[C@@H](CCCNC(=N)N)C(=O)O)[C@@H](C)O)C(C)C [(85-99)86A] (H-EAPVVHFFKNIVTPR-OH) | 940 nM
CC[C@H](C)[C@H](NC(=O)[C@H](CC(N)=O)NC(=O)[C@H](CCCCN)NC(=O)[C@H](Cc1ccccc1)NC(=O)[C@H](Cc1ccccc1)NC(=O)[C@H](C)NC(=O)[C@@H](NC(=O)[C@@H](NC(=O)[C@@H]1CCCN1C(=O)[C@H](CC(N)=O)NC(=O)[C@@H](N)CCC(=O)O)C(C)C)C(C)C)C(=O)N[C@H](C(=O)N[C@H](C(=O)N1CCC[C@H]1C(=O)N[C@@H](CCCNC(=N)N)C(=O)O)[C@@H](C)O)C(C)C [(85-99)90A] (H-ENPVVAFFKNIVTPR-OH) | 640 nM
CC[C@H](C)[C@H](NC(=O)[C@H](CC(N)=O)NC(=O)[C@H](CCCCN)NC(=O)[C@H](Cc1ccccc1)NC(=O)[C@H](Cc1ccccc1)NC(=O)[C@H](Cc1c[nH]cn1)NC(=O)[C@H](C)NC(=O)[C@@H](NC(=O)[C@@H]1CCCN1C(=O)[C@H](CC(N)=O)NC(=O)[C@@H](N)CCC(=O)O)C(C)C)C(=O)N[C@H](C(=O)N[C@H](C(=O)N1CCC[C@H]1C(=O)N[C@@H](CCCNC(=N)N)C(=O)O)[C@@H](C)O)C(C)C [(85-99)89A] (H-ENPVAHFFKNIVTPR-OH) | 690 nM
